Data set [1] concerns Npc1 transcript. Briefly: qPCR of Npc1 transcript in liver. The class given is in vivo, mouse. As to conditions: at 100 days. How it is done:
(§1) Vorinostat (50 mg/Kg)—Vorinostat was first dissolved in DMSO (100 mg/ml) and then diluted with 9 volume of Polyethylene Glycol 400 (PEG). This drug solution was named as ‘solution A’. Solution A was diluted with equal volume of water where the final concentration of each component was as follows; Vorinostat, 5 mg/ml; DMSO, 5% and PEG, 45%. Mice were given weekly intraperitoneal (i.p) injections starting at 21 days. Vorinostat (100 mg/Kg)—Vorinostat was first dissolved in DMSO (200 mg/ml) and then mixed with 9 volumes of PEG. Rest of the methods and injections plan were as described above. HPBCD (4000 mg/Kg)—40% HPBCD solution prepared in water. Mice were given weekly i.p injections starting at 7 days. HPBCD (2000 mg/Kg)—20% HPBCD solution prepared in water. Mice were given weekly i.p injections starting at 7 days. TCF (Vorinostat, 50 mg/Kg+HPBCD, 2000 mg/Kg, DMSO, 5%+PEG, 45%)—To prepare the formulation, the ‘solution A’ was first prepared as described above and equal volume of 40% HPBCD solution was slowly layered on top of it. The solution was gently mixed for 10 min at RT on rocker set at medium speed. […]
(§2) Quantitative PCR (qPCR) was performed using Power SYBR Green RNA-to-CT 1-Step Kit and an ABI Prism 7500 Fast real-time PCR system (Applied Biosystems, Grand Island, USA). […] The relative amount of transcript was determined using comparative CT method. […]

The conditions of data set [2]: delivered systemically; cited from earlier work.
Data set [3] has as its system Npc1^nmf164 fibroblasts. The data set can be described thus: Filipin staining of cholesterol in cultured mouse skin fibroblasts. In kind it is cell-based. Conditions: 5 μM Vo for 48 hrs. The method, then:
Ear pinna was cleaned with 70% alcohol and 2-3 small pieces (3×3 mm) were chopped and placed in 70% alcohol for 2 min and transferred to DMEM. Tissues were cut into small pieces and 2 ml of 0.25% trypsin were added, vigorously vortexed for 2 min and incubated at 37° C. with vortexing every 10 min. Trypsin was inactivated by adding 2 ml of culture media (DMEM+10%FBS). Cells were collected by spin (1000 rpm for 5 min), and were grown in DMEM+10% FBS in the presence penicillin (50 U/ml) and streptomycin (50 μg/ml). For treatment with vorinostat, fibroblasts (4×10^4) were plated in 24 well plate containing glass slide. Npc1^nmf164 fibroblasts were treated with 5 μM vorinostat for 48 hrs. Cells incubated with 0.025% DMSO served as vehicle control. Cells were fixed with 4% paraformaldehyde followed by incubation with filipin (100 μg/ml) to stain cholesterol. Slides were mounted using Vectashield (Vector laboratories) and processed for fluorescence microscopy.
(§3) Tissue sections after IFA and filipin stained fibroblasts were visualized with 40× oil-immersion objective lens (NA 1.35). […] Digital image collection were performed using an Olympus IX inverted fluorescence microscope and a Photometrix cooled CCD camera (CH350/LCCD) driven by DeltaVision software from Applied Precision (Seattle, Wash., USA). […] Images were analyzed using ImageJ software (NIH, MD, USA).

The test system of data set [4] is CD68, ITGAX, MIP1α and CTSD. Briefly: qPCR of inflammatory markers in the liver. The class given is in vivo, mouse. Conditions: 100 days; Vo 50 mg/Kg; HPBCD 2000 mg/Kg; TCF. How it is done: as §1, §2
Data set [5] has as its system NPC1 protein. Briefly: NPC1 immunostaining of Purkinje cells in cerebellar sections. The class given is in vivo, mouse. As to conditions: 100 days old mice. How it is done:
Mice were sacrificed by asphyxiation using CO2. Harvested organs were immersed fixed in 10% neutral buffered formalin (˜4% formaldehyde) for 24 hrs at RT. The organs were subsequently stored in 70% alcohol at RT until transfer to paraffin. Paraffin-embedded tissue sections (4-5 μm) were dewaxed in xylene and alcohol. Calbindin antigen retrieval was done by pre-incubating deparaffinized samples with 0.05% proteinase K (Dako, Germany) in 50 mM Tris-HCl (pH 7.5) for 8 min at RT. CTSS and NPC1 was retrieved by boiling the sections in acidic condition for 30 min. Blocking was done either with 2% goat serum (for calbindin and NPC1) or 2% rabbit serum (for cathepsin S) for 30 min at RT. Sections were incubated with anti-calbindin (1:1000, C9848, Sigma), anti-cathepsin S (20 μg/ml, M-19, Santa Cruz Biotechnology), anti-NPC1 (custom made against human NPC1 protein, 20 μg/ml) overnight at 4° C. […] Vectashield (Vector laboratories) was used as mounting medium and processed for fluorescence microscopy.
as §3

Take `CC(O)COC[C@H]1O[C@@H]2O[C@H]3[C@H](O)[C@@H](O)[C@@H](O[C@H]4[C@H](O)[C@@H](O)[C@@H](O[C@H]5[C@H](O)[C@@H](O)[C@@H](O[C@H]6[C@H](O)[C@@H](O)[C@@H](O[C@H]7[C@H](O)[C@@H](O)[C@@H](O[C@H]8[C@H](O)[C@@H](O)[C@@H](O[C@H]1[C@H](O)[C@H]2O)O[C@@H]8COCC(C)O)O[C@@H]7COCC(C)O)O[C@@H]6COCC(C)O)O[C@@H]5COCC(C)O)O[C@@H]4COCC(C)O)O[C@@H]3COCC(C)O` (stereo partly drawn) [HPBCD, 2-Hydroxypropyl-β-cyclodextrin]: the “Npc1 transcript levels in the liver” value in data set [1] is listed as “no effect on target Npc1 expression”. For the same compound, the “crossing of the blood brain barrier” value in data set [2] is reported as “does not cross the blood brain barrier”.
With `O=C(CCCCCCC(=O)Nc1ccccc1)NO` [vorinostat], the “cholesterol levels in NPC fibroblasts (filipin)” value in data set [3] is listed as “reduced”; in data set [3] (listed as Vorinostat) it was “decreased cholesterol levels in NPC cells to those seen in fibroblasts from control”. In addition, the “inflammatory markers in the liver” value in data set [4] is given as “significant anti-inflammatory activity”. Also, the “NPC1 staining in Purkinje cells (in words)” value in data set [5] is listed as “Slight staining of NPC1”.

These data come from patent US10413517B2, “Composition and method for the treatment of neurological diseases and cerebral injury” (UNIVERSITY OF NOTRE DAME DU LAC, priority 2014, dated 2019).
